In patent US20230174608A1, “Polypeptide Derivative Having Dual Receptor Agonistic Action and Use Thereof” (TIANJIN INSTITUTE OF PHARMACEUTICAL RESEARCH CO., LTD., priority 2020, published 2023):
Marks after values point to notes of the source that are not given here. Where a SMILES comes first, the peptide text is derived from it.

What was measured:
[1] = target: T1, GLP-1R (Homo sapiens, UniProt P43220); assay: GLP-1 receptor-mediated cAMP production in vitro; type: cell-based; conditions: HEK293 cell line stably expressing GLP-1R
T1 construct: expressed in transfected cells
Method: (§1) HEK293 cell line stably expressing GLP-1R or GCGR was used for screening GLP-1R and GCGR agonist.
(§2) Preparation of test sample: each compound was prepared into 100 μM stock solution, and then gradually diluted to working concentrations of 1 μM, 100 nM, 10 nM, 1 nM, 10^−1 nM, 10^−2 nM, 10^−3 nM, and H2O.
(§3) 1) Each compound to be tested was mixed with a serum-free medium (containing 0.1% BSA and 0.5 mM IBMX) to obtain a solution at a concentration 2 times the working concentration.
(§4) 2) The cells were digested, suspended in a serum-free medium (containing 0.5 mM IBMX), counted, and placed in a 384-well plate at a density of 1,000 cells/5 μL/well, then 5 μL of the testing compound was added, and the plate was placed in dark for reaction for 30 min.
(§5) 3) After the reaction was completed, a substrate for detecting cAMP was added, and the plate was placed in dark for reaction at the room temperature for 60 min.
(§6) 4) After the reaction was completed, the plate was placed on the Envision2104 multifunctional microplate reader for detection, and the ratio of optical density (OD) values at 665 nm and 615 nm were read out.

[2] = target: T2, GCGR (Homo sapiens, UniProt P47871); assay: GC receptor-mediated cAMP production in vitro; type: cell-based; conditions: HEK293 cell line stably expressing GCGR
T2 construct: expressed in transfected cells
Method: as §1, §2, §3, §4, §5, §6

[3] = tested on: glucose loaded normal mice; assay: Glucose loading test on normal mice after single administration; type: in vivo, Kunming mice; conditions: for Blood glucose reduction rate (%): after glucose loading, versus model control group; for Blood glucose level after glucose loading: glucose 2.5 g/kg intragastric 60 min after administration, measured 30 min after loading; for Blood glucose level after glucose loading / Fasting blood glucose level: n=5; for Fasting blood glucose level: normal mice fasted 6 h, 30 nmol/kg group
Method: The hypoglycemic action of each compound of Example 1 was assessed by a glucose loading test on normal mice after single administration.
Method: Kunming mice (male, with a weight of 20-22 g) were acclimated in a barrier environment animal room for 3 days, divided into a blank control group, a model control group, a positive control group, and test compound groups, 5 mice in each group, and fasted for 6 h. Saline was administered to each mouse in the blank control group and the model control group, the compounds and a positive control drug were respectively administered to each mouse in the test compound groups and the positive control group at a dose of 30 nmol/kg, and the positive control drug was semaglutide. 60 min after administration, glucose was intragastrically administered to each mouse in the model control group, the positive control group, and the test compound groups at a dose of 2.5 g/kg (0.01 mL·g^−1 weight), distilled water was administered to each mouse in the blank control group, and blood glucose levels were determined 30 min after glucose loading.

[4] = tested on: diet-induced obesity (DIO) mice; assay: Obese (DIO) model mice, 23 days of successive administration; type: in vivo, C57BL/6J Gpt mice; conditions: for Fasting blood glucose (mmol/L) before the last administration: fasted 16 h; for Fasting blood glucose (mmol/L) before the last administration / TC (total cholesterol) / TG (triglycerides): n=5; for Weight decreasing rate: 30 nmol/kg s.c. every day, without fasting before the last administration compared to day 1; for Examination of liver pathological section: HE stain, 2 animals; for TC (total cholesterol) / TG (triglycerides): after 23 days of administration
Description: C57BL/6J Gpt mice (purchased from GemPharmatech (Jiangsu) Co., Ltd.) (6-8-week-old) were fed with H10060 high-fat diet (purchased from Beijing HFK Bioscience Co., Ltd.) to obtain diet-induced obesity (DIO) models, mice in a blank control group (n=5) were fed with standard diets, and all the mice were fed for 11 weeks after being purchased. One day before the first administration, the mice in the model group were randomly divided into 5 groups according to their weights (within a range of 39.5-49.5 g), i.e., a model control group, a positive control group, and test compound groups (dgc005, dgc016, and dgc020), respectively, 5 mice in each group, which were administered every day by subcutaneous injection. Saline was subcutaneously injected in the blank control group and the model control group every day. The administration was performed for 23 days. The positive control drug and the test compounds were administered at a dose of 30 nmol/kg, and the administration volume for each group was 0.005 mL/g weight. The mice were weighed before each administration, and 72-h food intake was weighed every three days. The mice fasted for 16 h before the last administration, fasting blood glucose levels were determined, blood was sampled from the orbital venous plexus to determine triglycerides and total cholesterol, and the liver was taken out for pathological section observation.
The liver of each C576L/6 mouse in the groups was fixed with 12% formaldehyde and prepared into a specimen, and the tissue block was repaired, dehydrated with graded alcohol, embedded in paraffin, stained with HE, and examined under a light microscope.

[5] = tested on: diet-induced obesity (DIO) mice; assay: DIO mice, weight and blood glucose after multiple administrations at different doses; type: in vivo, C57BL/6N mice; conditions: for Fasting blood glucose (mmol/L) before the last administration / Blood glucose level (mmol/L) 0.5 h after glucose loading / Glycemic load reduction rate: Day 22; for Fasting blood glucose (mmol/L) before the last administration: fasted 16 h; for Blood glucose level (mmol/L) 0.5 h after glucose loading: glucose 1 g/kg intragastric 30 min after administration; for Glycemic load reduction rate: versus model control group; for Reduction rate of weight without fasting on day 21 compared to day 0: n=5
Description: 40 C57BL/6N mice were purchased from Beijing Vital River Laboratory Animal Technology Co., Ltd. Mice in a model group (n=35) were fed with H10060 high-fat diets to obtain diet-induced obesity (DIO) models, mice in a blank control group (n=5) were fed with standard diets, and all the mice were fed for 36 weeks. On the day of the first administration, the mice in the model group were randomly divided into 7 groups according to their weights (within a range of 45-60 g), i.e., a model control group, positive control groups (semaglutide at doses of 10 nmol/kg and 30 nmol/kg, respectively), and test compound groups (dgc005 and dgc016 at doses of 10 nmol/kg and 30 nmol/kg, respectively), 5 mice in each group. The positive control drug and the test compounds were respectively subcutaneously injected into each mouse in the positive control groups and the test compound groups every day, saline was subcutaneously injected into each mouse in the blank control group and the model control group, and the administration was performed for 22 days (the administration volume for each group was 0.005 mL/g weight). The mice were weighed before each administration, and 72-h food intake was weighed every three days. The mice fasted for 16 h before the last administration, and 30 min after administration, a glucose solution (1 g/kg, the administration volume was 0.01 mL/g weight) was intragastrically administered to each mouse for glucose tolerance test. Blood glucose levels were determined 0.5 h after glucose loading.

[6] = day 4 of administration, 30 nmol/kg s.c. daily
[7] = day 7 of administration, 30 nmol/kg s.c. daily
[8] = day 10 of administration, 30 nmol/kg s.c. daily
[9] = day 13 of administration, 30 nmol/kg s.c. daily

T1 sequence (P43220 24-463, species assumed): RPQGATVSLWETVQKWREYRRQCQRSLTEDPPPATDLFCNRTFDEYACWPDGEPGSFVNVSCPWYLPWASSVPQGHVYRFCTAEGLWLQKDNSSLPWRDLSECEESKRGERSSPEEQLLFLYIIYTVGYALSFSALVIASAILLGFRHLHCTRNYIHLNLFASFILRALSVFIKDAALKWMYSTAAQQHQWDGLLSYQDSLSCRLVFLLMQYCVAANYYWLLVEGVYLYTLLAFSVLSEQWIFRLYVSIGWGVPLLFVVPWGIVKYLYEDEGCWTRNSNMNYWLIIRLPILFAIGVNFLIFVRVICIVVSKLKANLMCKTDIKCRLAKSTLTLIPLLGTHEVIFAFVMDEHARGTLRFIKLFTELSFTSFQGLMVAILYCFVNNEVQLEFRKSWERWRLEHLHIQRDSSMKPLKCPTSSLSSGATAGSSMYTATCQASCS
T2 sequence (P47871 26-477, species assumed): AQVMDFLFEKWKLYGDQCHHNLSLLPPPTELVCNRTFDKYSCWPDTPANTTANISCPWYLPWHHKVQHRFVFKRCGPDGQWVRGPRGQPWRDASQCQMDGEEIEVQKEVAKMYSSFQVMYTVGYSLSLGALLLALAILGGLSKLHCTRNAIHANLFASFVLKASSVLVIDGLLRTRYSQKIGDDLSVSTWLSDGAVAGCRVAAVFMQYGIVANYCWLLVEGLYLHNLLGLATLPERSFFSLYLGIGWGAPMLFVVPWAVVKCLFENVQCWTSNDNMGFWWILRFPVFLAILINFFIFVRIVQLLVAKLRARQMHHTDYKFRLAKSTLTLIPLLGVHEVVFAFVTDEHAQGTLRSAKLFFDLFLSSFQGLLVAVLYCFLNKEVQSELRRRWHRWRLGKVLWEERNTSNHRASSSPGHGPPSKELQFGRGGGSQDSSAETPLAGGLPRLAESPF

SMILES	EC50 [1] [nM]	EC50 [2] [nM]	Blood glucose reduction rate (%) ([3]; 30 nmol/kg single dose)	Blood glucose level after glucose loading ([3]; 30 nmol/kg single dose)	Fasting blood glucose level [3] [mmol/L]	Fasting blood glucose (mmol/L) before the last administration ([4]; 30 nmol/kg s.c. daily, 23 days) [mmol/L]	Weight decreasing rate [4] [%]	Examination of liver pathological section ([4]; 23 days, 30 nmol/kg s.c. daily)	TC (total cholesterol) ([4]; 30 nmol/kg s.c. daily) [mmol/L]	TG (triglycerides) ([4]; 30 nmol/kg s.c. daily)	72-h food intake [4, 6] [g/mouse]	72-h food intake [4, 7] [g/mouse]	72-h food intake [4, 8] [g/mouse]	72-h food intake [4, 9] [g/mouse]	further results
CCCCCCCCCCCCCCCC(=O)N[C@@H](CCC(=O)N[C@@H](CCC(=O)NCCCC[C@H](NC(=O)[C@H](C)NC(=O)[C@H](C)NC(=O)[C@H](CCCNC(=N)N)NC(=O)[C@H](CCC(=O)O)NC(=O)[C@H](CCC(=O)O)NC(=O)[C@H](CC(C)C)NC(=O)[C@H](Cc1ccc(O)cc1)NC(=O)[C@H](CCCCN)NC(=O)[C@H](CO)NC(=O)[C@H](Cc1ccc(O)cc1)NC(=O)[C@H](CC(=O)O)NC(=O)[C@H](CO)NC(=O)[C@@H](NC(=O)[C@H](Cc1ccccc1)NC(=O)[C@@H](NC(=O)CNC(=O)[C@H](CCC(N)=O)NC(=O)C(C)(C)NC(=O)[C@@H](N)Cc1c[nH]cn1)[C@@H](C)O)[C@@H](C)O)C(=O)N[C@@H](CCC(=O)O)C(=O)N[C@@H](Cc1ccccc1)C(=O)N[C@H](C(=O)N[C@@H](C)C(=O)N[C@@H](Cc1c[nH]c2ccccc12)C(=O)N[C@@H](CC(C)C)C(=O)N[C@@H](CCC(=O)O)C(=O)N[C@@H](C)C(=O)NCC(=O)NCC(N)=O)[C@@H](C)CC)C(=O)O)C(=O)O [dgc005] (HELM PEPTIDE1{H.[Aib].Q.G.T.F.T.S.D.Y.S.K.Y.L.E.E.R.A.A.K.E.F.I.A.W.L.E.A.G.G.[am]}|PEPTIDE2{[CCCCCCCCCCCCCCCC(=O)[*:2]].[gGlu].[gGlu]}$PEPTIDE1,PEPTIDE2,20:R3-3:R2$$$V2.0; N-terminus assumed)	0.484	1.16	60.59	6.70 ± 1.88**^ mmol/L	3.96 ± 0.62	4.60 ± 0.34	27	no obvious pathological changes are seen in portal areas and interstitium	3.07 ± 0.50	0.58 ± 0.10**^#ΔΔ mmol/L	2.50	3.80	4.20	4.60	Inhibition of the rise of blood glucose after glucose loading (in words) ([3]; 30 nmol/kg single dose, normal mice): equivalent to that of the positive control drug; Effect on total cholesterol (in words) ([4]; 23 days, 30 nmol/kg s.c. daily): reduced total cholesterol (TC) in a certain extent; Effect on triglycerides (in words) ([4]; 23 days, 30 nmol/kg s.c. daily): significantly reduce triglycerides (TGs); Fasting blood glucose (mmol/L) before the last administration ([5]; 10 nmol/kg s.c. daily): 5.34 ± 1.20 mmol/L; Blood glucose level (mmol/L) 0.5 h after glucose loading ([5]; 10 nmol/kg s.c. daily): 7.52 ± 0.77 mmol/L; Glycemic load reduction rate ([5]; 10 nmol/kg s.c. daily): 28.52; Reduction rate of weight without fasting on day 21 compared to day 0 ([5]; 10 nmol/kg s.c. every day): 18.41%; Fasting blood glucose (mmol/L) before the last administration ([5]; 30 nmol/kg s.c. daily): 4.22 ± 2.13 mmol/L; Blood glucose level (mmol/L) 0.5 h after glucose loading ([5]; 30 nmol/kg s.c. daily): 7.82 ± 1.09 mmol/L; Glycemic load reduction rate ([5]; 30 nmol/kg s.c. daily): 25.66; Reduction rate of weight without fasting on day 21 compared to day 0 ([5]; 30 nmol/kg s.c. every day): 21.39%
CCCCCCCCCCCCCCCC(=O)N[C@@H](CCC(=O)N[C@@H](CCC(=O)NCCCC[C@H](NC(=O)[C@H](C)NC(=O)[C@H](C)NC(=O)[C@H](CCCNC(=N)N)NC(=O)[C@H](CCC(=O)O)NC(=O)[C@H](CCC(=O)O)NC(=O)[C@H](CC(C)C)NC(=O)[C@H](Cc1ccc(O)cc1)NC(=O)[C@H](CCCCN)NC(=O)[C@H](CO)NC(=O)[C@H](Cc1ccc(O)cc1)NC(=O)[C@H](CC(=O)O)NC(=O)[C@H](CO)NC(=O)[C@@H](NC(=O)[C@H](Cc1ccccc1)NC(=O)[C@@H](NC(=O)CNC(=O)[C@H](CCC(N)=O)NC(=O)C(C)(C)NC(=O)[C@@H](N)Cc1c[nH]cn1)[C@@H](C)O)[C@@H](C)O)C(=O)N[C@@H](CCC(=O)O)C(=O)N[C@@H](Cc1ccccc1)C(=O)N[C@H](C(=O)N[C@@H](C)C(=O)N[C@@H](Cc1c[nH]c2ccccc12)C(=O)N[C@@H](CC(C)C)C(=O)N[C@@H](CCC(=O)O)C(=O)NCC(=O)N[C@@H](CCC(=O)O)C(=O)NCC(N)=O)[C@@H](C)CC)C(=O)O)C(=O)O [dgc020] (HELM PEPTIDE1{H.[Aib].Q.G.T.F.T.S.D.Y.S.K.Y.L.E.E.R.A.A.K.E.F.I.A.W.L.E.G.E.G.[am]}|PEPTIDE2{[CCCCCCCCCCCCCCCC(=O)[*:2]].[gGlu].[gGlu]}$PEPTIDE1,PEPTIDE2,20:R3-3:R2$$$V2.0; N-terminus assumed)	1.51	0.883	42.24	9.82 ± 2.06 mmol/L	4.24 ± 0.63	4.78 ± 0.46	25.0	no obvious pathological changes are seen in portal areas and interstitium	3.62 ± 0.84	0.88 ± 0.28^Δ mmol/L	3.50	4.50	5.70	5.50	–
